Results on ten molecules are retold here after patent US20190322643A1 (Georgia State University Research Foundation, Inc., priority 2016, published 2019).

For one assay, the target named is T1, G9a (Homo sapiens, UniProt Q96KQ7).
T1 construct: endogenous in cells; host or cells: MDA-MB-231
T1 sequence (Q96KQ7 1-1210): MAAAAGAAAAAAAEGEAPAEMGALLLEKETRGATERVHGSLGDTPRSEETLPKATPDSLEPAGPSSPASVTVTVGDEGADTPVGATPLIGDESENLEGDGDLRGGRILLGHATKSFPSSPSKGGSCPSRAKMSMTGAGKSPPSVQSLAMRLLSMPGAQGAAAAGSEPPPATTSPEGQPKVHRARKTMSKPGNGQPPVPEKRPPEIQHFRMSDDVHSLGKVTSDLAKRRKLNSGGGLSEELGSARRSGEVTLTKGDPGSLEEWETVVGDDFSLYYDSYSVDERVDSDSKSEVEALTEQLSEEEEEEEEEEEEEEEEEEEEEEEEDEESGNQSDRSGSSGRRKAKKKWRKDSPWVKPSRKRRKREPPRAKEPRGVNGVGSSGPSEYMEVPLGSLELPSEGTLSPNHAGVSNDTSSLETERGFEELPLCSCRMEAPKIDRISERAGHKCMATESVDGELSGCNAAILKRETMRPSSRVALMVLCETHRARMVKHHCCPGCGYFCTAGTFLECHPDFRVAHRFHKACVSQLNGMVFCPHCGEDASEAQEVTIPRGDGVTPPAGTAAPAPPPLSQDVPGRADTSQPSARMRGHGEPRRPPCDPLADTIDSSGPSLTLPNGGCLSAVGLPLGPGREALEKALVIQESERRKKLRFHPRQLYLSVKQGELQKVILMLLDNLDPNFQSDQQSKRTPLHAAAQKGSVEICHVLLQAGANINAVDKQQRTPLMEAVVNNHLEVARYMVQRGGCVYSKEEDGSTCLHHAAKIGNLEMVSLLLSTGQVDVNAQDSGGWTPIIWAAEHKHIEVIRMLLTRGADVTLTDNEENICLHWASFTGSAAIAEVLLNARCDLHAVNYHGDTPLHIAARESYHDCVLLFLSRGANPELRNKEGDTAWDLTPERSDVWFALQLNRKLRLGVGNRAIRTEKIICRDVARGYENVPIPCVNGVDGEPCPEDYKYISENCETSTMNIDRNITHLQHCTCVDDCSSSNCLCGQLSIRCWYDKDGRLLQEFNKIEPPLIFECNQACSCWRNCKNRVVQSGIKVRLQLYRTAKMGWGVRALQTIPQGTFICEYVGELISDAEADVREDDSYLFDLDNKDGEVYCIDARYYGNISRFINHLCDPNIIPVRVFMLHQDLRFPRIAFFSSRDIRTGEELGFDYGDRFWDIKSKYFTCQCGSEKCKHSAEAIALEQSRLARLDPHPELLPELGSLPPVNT
Nature of the assay: H3K9Me2 cell immunofluorescence in-cell Western (ICW) assay. The class given is cell-based. The note with it: MDA-MB-231 cell line, 48 h. Here is the method:
After the incubation, the media was removed and 100 μl fixation and permeabilization solution (2% formaldehyde in PBS) for fixation was added for 30 min. And then use 200 μl 0.1% Triton X100 in PBS washing solution to wash (allow wash to shake on a plate shaker for 5 minutes). After five washes, cells were blocked for 1 h with 150 μl blocking buffer to each well (1% BSA in PBS) (allow blocking at RT with moderate shaking on a plate shaker). After 1 h, remove the blocking buffer from the blocking step and add primary antibody in blocking buffer to cover the bottom of each well. […] The plates were read on an Odyssey CLX (LiCor) scanner at both 800 nm (H3K9me2 signal) and 700 nm (cell tag 700 stain signal) channels. IC50s were calculated using GraphPad Prizm statistical package with sigmoidal variable slope dose response curve fit.

Assay [1] concerns the target T2, Mouse histone methyltransferase G9a (969-1263) (Mus musculus, UniProt Q9Z148).
T2 construct: The 6His-sumo mG9a (969-1263) protein was purified using the following procedure; 6His-sumo (cleaved yes); made in house; host or cells: Escherichia coli BL21 (DE3)
T2 sequence (Q9Z148 969-1263): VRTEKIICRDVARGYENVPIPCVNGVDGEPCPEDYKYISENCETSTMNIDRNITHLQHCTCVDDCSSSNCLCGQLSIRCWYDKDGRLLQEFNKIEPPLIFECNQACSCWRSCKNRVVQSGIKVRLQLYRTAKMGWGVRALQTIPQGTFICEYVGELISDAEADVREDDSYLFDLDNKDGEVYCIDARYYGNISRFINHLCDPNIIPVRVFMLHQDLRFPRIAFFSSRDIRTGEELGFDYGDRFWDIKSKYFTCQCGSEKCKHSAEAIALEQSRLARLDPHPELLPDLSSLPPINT
Nature of the assay: MALDI-TOF methylation study of G9a inhibition. The class given is biochemical. As to conditions: inhibitors at 5 μM concentration for 30 min. How it is done:
Mouse histone methyltransferase G9a (969-1263) cDNA was amplified from the cDNA of BALB/c mouse thymus, and the fragment was sub-cloned into a vector with a 6His-sumo tag. […] The 6His-sumo mG9a (969-1263) protein was purified using the following procedure: harvested cell pellet was re-suspended in 20 mM Tris (pH 8.0), 500 mM NaCl, 0.1% β-mercaptoethanol, and 1 mM PMSF. Cells were lysed by sonicating for 15 seconds with 6 second intervals for a total time of 15 minutes on an ice bath. […] The 6His-sumo tag was cleaved from the column by adding Ubiquitin-like-specific protease 1 (ULP-1) at 4° C. for 12 hours. Wash buffer was then run through the Ni^+ column again and the elution buffer collected. Subsequently, advanced protein purification was done by HiTrap Q HP sequential Superdex 200 10/300 GL. Elute of every step was analyzed by SDS PAGE, stained by Coomassie brilliant blue (CBB). […] The reaction was incubated at room temperature for 30 min, and stopped by TFA. 1 μL of the sample was mixed with CHCA matrix and m/z peaks were obtained at reflection positive mode. The results of mass spectrum were analyzed using the Bruker flex analysis software and data processing was carried out as described below. MALDI-TOF based experiments were performed according to the protocol developed by Chang et al. (Nat. Struct. Mol. Biol. 2009, 16, 312-317). MALDI spectra were collected using Bruker flex control software and analyzed by flex analysis. After labelling each cluster peaks of H3K9Me0, H3K9Me1 and H3K9Me2 for all of the tested concentrations, area under the cluster (AUC) were extracted by using the same flex analysis software. % abundance of each peak was calculated by following formula: A=% Abundance of (H3K9Me0)=area of H3K9Me0/(area of H3K9Me0+area of H3K9Me1+area of H3K9Me2) B=% Abundance of (H3K9Me1)=area of H3K9Me1/(area of H3K9Me0+area of H3K9Me1+area of H3K9Me2) C=% Abundance of (H3K9Me2)=area of H3K9Me2/(area of H3K9Me0+area of H3K9Me1+area of H3K9Me2). This was repeated for each spectra (3 multiples for each samples). […] Finally % inhibition was found by subtracting % MA(i) from 100. […] A biochemical assay using MALDI-TOF was used to visualize the effects of the synthesized compounds on G9a enzymatic activity. […] Struct. Mol. Biol. 2009, 16, 312-317).

Another assay has as its system HCT-8. Nature of the assay: Cytotoxicity / anti-proliferation assay (CCK-8), HCT-8. The note with it: Homo sapiens, 72 h, CCK-8 kit. The class given is cell-based. Here is the method:
(§1) Then the cells were exposed to the different inhibitors with various concentrations for 72 h. […] EC50s were calculated using GraphPad Prizm statistical package with sigmoidal variable slope dose response curve fit.
(§2) Cell anti-proliferation assays were performed to determine the toxicity of these inhibitors. […] These compounds were further evaluated against the control cell line HEK293 to test their toxicity with a non-cancerous cell line.
For orientation: Formazan colour is commonly taken as a measure of viable cells.

The next assay deals with A549. Nature of the assay: Cytotoxicity / anti-proliferation assay (CCK-8), A549. In kind it is cell-based. The note with it: Homo sapiens, 72 h, CCK-8 kit. Here is the method:
as §1, §2

The subject of assay [2] is HDAC. Nature of the assay: Cell based homogenous HDAC assay, Hela. As to conditions: read-out: IC50-HDAC Hela; Hela cells, mean ± SD of triplicate.
Assay [3] has as its system HDAC. Nature of the assay: Cell based homogenous HDAC assay, K562. The note with it: read-out: IC50-HDAC K562; K562 cells, mean ± SD of triplicate.
Method: (§3) After 24 h, 9 μl inhibitors with different concentration were added to the HeLa cells and incubation was continued for 3 h under cell culture conditions. After this treatment period, 10 μl of a 2 mM stock solution of the substrate Boc-K(Ac)-AMC was added into the 96 well plates with Hela cells and inhibitors. […] A549 and K562 cell lines used the same method, respectively. IC50s were calculated using GraphPad Prizm statistical package with sigmoidal variable slope dose response curve fit.
(§4) Boc-K(Ac)-AMC was used as a cell-permeable HDAC substrate, as after deacetylation it is cleaved by trypsin to release the florescent 7-amino-4-methylcoumarin (AMC).
Assay [4] relates to HDAC. Nature of the assay: Cell based homogenous HDAC assay, A549. As to conditions: read-out: IC50-HDAC A549; A549 cells, mean ± SD of triplicate.
Method: as §3, §4

Some results are limits rather than exact numbers.

The IC50 is the concentration at which inhibition is half-maximal. For orientation: inhibition means the share of the control response that was lost under treatment. High values mean strong suppression, low ones little suppression. For orientation: EC50 means the concentration that produces a half-maximal response. A higher EC50 goes with a less potent agent.

As to `COc1ccc2c(NC3CCN(C)CC3)nc(NCCNC(=O)CCCCCC(=O)NO)nc2c1` [Compound 14a, N1-hydroxy-N7-(2-((7-methoxy-4-((1-methylpiperidin-4-yl)amino)quinazolin-2yl)amino)ethyl) heptanediamide], at G9a, half-maximal inhibition (IC50) was put at 46.8 ± 1.97 µM. In assay [1], this molecule came in with an inhibition at 5 µM of 29.7 ± 23.3%. In addition, the EC50 in the assay on HCT-8 and with A549 was above 100 µM throughout.
As to `COc1ccc2c(NC3CCN(C)CC3)nc(NCCNC(=O)CCCCC(=O)NO)nc2c1` [Compound 15a, N1-hydroxy-N6-(2-((7-methoxy-4-((1-methylpiperidin-4-yl)amino)quinazolin-2-yl)amino)ethyl)adipamide], the IC50 against G9a was 47 ± 3.33 µM. For the same molecule, testing at 5 µM in assay [1] gave an inhibition of 69.1 ± 24.5%. For the same molecule, the EC50 in the assay with HCT-8 and with A549 was above 100 µM in each case.
With `COc1cc2nc(NCCNC(=O)CCCCCC(=O)NO)nc(NC3CCN(C)CC3)c2cc1OC` [Compound 5, N1-(2-((6,7-dimethoxy-4-((1-methylpiperidin-4-yl)amino)quinazolin-2-yl)amino)ethyl)-N7-hydroxyheptanediamide], the IC50 at G9a, with HDAC [2], in the assay with HDAC [3] and in the assay on HDAC [4] was above 100 µM each time. Moreover, in assay [1], the inhibition at 5 µM stood at 65 ± 1.95%. Moreover, the EC50 in the assay on HCT-8 and in the assay with A549 was above 100 µM each time.
Take `COc1ccc2c(NCCNC(=O)CCCCCCC(=O)NO)nc(N3CCCN(C)CC3)nc2c1` [Compound 21, N1-hydroxy-N8-(2-((7-methoxy-2-(4-methyl-1,4-diazepan-1-yl)quinazolin-4 yl)amino)ethyl)octanediamide]: in assay [1], the inhibition at 5 µM amounted to 22.8 ± 26.7%. Moreover, the EC50 in the assay with HCT-8 and in the assay with A549 was above 100 µM in each case.
Regarding `COc1ccc2c(NC3CCN(Cc4ccccc4)CC3)nc(NCCNC(=O)CCCCC(=O)NO)nc2c1` [Compound 15, N1-(2-((4-((1-benzylpiperidin-4-yl)amino)-7-methoxyquinazolin-2-yl)amino)ethyl)-N6-hydroxyadipamide], on G9a, the IC50 turned out to be 72.1 ± 1.37 µM. In addition, at 5 µM the inhibition in assay [1] was 47.9 ± 12.9%. For the same molecule, the EC50 in the assay with HCT-8 and with A549 was above 100 µM throughout.
On to `COc1cc2nc(N3CCCN(C)CC3)nc(NC3CCN(C(=O)CCCCCC(=O)NO)CC3)c2cc1OC` [Compound 20, 7-(4-((6,7-dimethoxy-2-(4-methyl-1,4-diazepan-1-yl)quinazolin-4-yl)amino)piperidin-1-yl)-N-hydroxy-7-oxoheptanamide], for which the IC50 at G9a turned out to be 97.5 ± 2.78 µM. In assay [1], this molecule registered an inhibition at 5 µM of 14.6 ± 15.8%. Further, the EC50 with HCT-8 and with A549 was above 100 µM throughout.
Turning to `COc1ccc2c(NC3CCN(C)CC3)nc(NCCNC(=O)CCCC(=O)NO)nc2c1` [Compound 16a, N1-hydroxy-N5-(2-((7-methoxy-4-((1-methylpiperidin-4-yl)amino)quinazolin-2-yl)amino)ethyl)glutaramide], it took 45.7 ± 1.76 µM to reach half-maximal inhibition against G9a (IC50). In addition, in assay [1], 5 µM produced 40.3 ± 13.8% inhibition. Besides, the EC50 with HCT-8 and in the assay on A549 was above 100 µM in each case.
On to `COc1cc2nc(N3CCCN(C)CC3)nc(NC3CCN(C(=O)CCCCCCC(=O)NO)CC3)c2cc1OC` [Compound 19, 8-(4-((6,7-dimethoxy-2-(4-methyl-1,4-diazepan-1-yl)quinazolin-4-yl)amino)piperidin-1-yl)-N-hydroxy-8-oxooctanamide], for which, on G9a, the IC50 came to 99.6 ± 3.13 µM. In assay [1], this molecule yielded an inhibition at 5 µM of 10.7 ± 25.9%. Besides, the EC50 with HCT-8 and with A549 was above 100 µM in each case.
At G9a, `COc1ccc2c(NC3CCN(Cc4ccccc4)CC3)nc(NCCNC(=O)CCCC(=O)NO)nc2c1` [Compound 16, N1-(2-((4-((1-benzylpiperidin-4-yl)amino)-7-methoxyquinazolin-2-yl)amino)ethyl)-N5-hydroxyglutaramide] registered a 50% inhibitory concentration (IC50) of 90.3 ± 3.75 µM. For the same molecule, the inhibition at 5 µM in assay [1] worked out at 40.3 ± 13.8%. Besides, the EC50 in the assay with HCT-8 is 83.9 µM.
At G9a, `COc1ccc2c(NCCNC(=O)CCCCCC(=O)NO)nc(N3CCCN(C)CC3)nc2c1` [Compound 22, N1-hydroxy-N7-(2-((7-methoxy-2-(4-methyl-1,4-diazepan-1-yl)quinazolin-4-yl)amino)ethyl)heptanediamide] had an IC50 of 60.6 ± 3.66 µM. The same molecule gave an inhibition at 5 µM in assay [1] of 40.3 ± 15.3%. For the same molecule, the EC50 with HCT-8 and in the assay with A549 was above 100 µM throughout.
